Experiments:
[1] = test system: memory-deficient model rats; test: Y-maze test in ibotenic acid-induced memory-deficient model rats; assay type: in vivo, rat
Excerpt: Ibotenic acid is a neurotoxin present in mushrooms and is known to cause powerful damage to neurons when directly injected into the brain of mice or rats. In particular, because senile plaques and neuronal cell death appear in the entorhinal cortex and hippocampus in early Alzheimer's disease patients (Ueki A et al. J Neurol Sci, 1994), memory-deficient model rats were generated by injecting ibotenic acid (IBO) into the entorhinal cortex. The surgical protocol followed Heo H et al.'s method (J Ethnopharmacol, 2009) with some modifications. In the model animals, the injection of ibotenic acid induces cell death not only in the entorhinal cortex but also in the CA and DG regions of the hippocampus and impairs hippocampus-related learning and memory abilities.
The 6-week-old rats were anesthetized with equithesin (350 mM pentobarbital sodium, 250 mM chloral hydrate, 85 mM MgSO4 and 40% propylene glycol in 10% ethanol, 2 mL/kg). To induce cell death in the dentate gyrus and hippocampus in addition to the entorhinal cortex, ibotenic acid (1.5 μL per animal, 1 mg/mL) was injected into the entorhinal cortex as follows. The rat was placed in a stereotaxic device (Stoelting Co., Wood Dale, Ill., USA) with the incisor bar 3.4 mm below the interaural line. The needle was positioned 10° right to the midsaggital plane. Then, ibotenic acid was injected at 3 locations into the entorhinal cortex and medial entorhinal cortex at a rate of 0.35 μL/min (first, AP: 8.4 mm, ML: 4.8 mm, DV: 4.6-4.8 mm; second, AP: 8.4 mm, ML: 4.8 mm, DV: 2.6-2.8 mm; third, AP: 8.8 mm, ML: 3.65 mm, DV: 4.8 mm). […]
The maze was made of black-colored acryl and was positioned at equal angles. […] Arm entry was recorded when the hind paws were completely placed in the arm. Consecutive entry into 3 arms in an alternative order was defined as successive entries on overlapping triplet sets, and alternation percentage was calculated as the ratio of actual to possible alternations (defined as the total number of arm entries minus 2), multiplied by 100. […]

[2] = test system: hippocampal neural precursor cells (NPCs); test: Immunoblotting assay of VGluT1, ChAT, GAD65/67 in cultured hippocampal neural precursor cells; assay type: cell-based, rat
Excerpt: Pregnant Sprague-Dawley rats purchased from Orient Animal Breeding Center (a branch of Charles River Laboratories, Gyeonggi-do, Korea) were sacrificed by exposing to CO2 inhalation. Hippocampal neural precursor cells (NPCs) were isolated from the brain of the E16 rat embryo according to the method of Shin M H et al. (Exp Mol Med, 2002) with slight modifications.
Briefly, hippocampi were aseptically dissected from the embryonic forebrain, mechanically dissociated in Ca^2+/Mg^2+-free Hank's balanced salt solution (HBSS) and then plated at 7×10^5 cells/cm^2 on 60-mm dishes pre-coated with 15 μg/mL poly-L-ornithine and 1 μg/mL fibronectin. The neural precursor cells were cultured in serum-free N2 media supplemented with 10 ng/mL bFGF in 5% CO2 for 3 days and then detached using 0.05% trypsin-ethylenediaminetetraacetic acid (EDTA). The neural precursor cells were plated on 12-mm cover glasses (Bellco Co., Vineland, N.J., USA) and cultured one more day in N2 media supplemented with 10 ng/mL bFGF in 5% CO2 (primary culturing).
Following the primary culturing in (1), the cultured hippocampal neural precursor cells were lysed in 80 μL of a cold RIPA buffer containing a protease inhibitor cocktail for immunoblotting assay of VGluT1, ChAT and GAD65/67. After centrifugation for 10 minutes at 13,000×g, the supernatants were divided into Eppendorf tubes and stored at −80° C.
Protein quantification assay was performed using a Bradford protein assay kit (Bio-Rad, Hercules, Calif., USA). […]
The number of the VGluT1- and GAD-positive cells in the brain slice samples 1 week and 4 weeks after the administration of soyasaponin I was presented per microscopic field (×400-VGluT1, ×800-GAD67) and the number of the ChAT-positive cells was presented per each hippocampal region (10-12 confocal laser microscopic fields). […] Western blotted membranes were analyzed using the multi-gauge, bio-imaging program on LAS-4000 Mini (Fujifilm Life Science, Stamford, Conn., USA). […]

## C[C@@H]1O[C@@H](O[C@H]2[C@H](O[C@H]3[C@H](O[C@H]4CC[C@@]5(C)[C@@H](CC[C@]6(C)[C@@H]5CC=C5[C@@H]7CC(C)(C)C[C@@H](O)[C@]7(C)CC[C@]56C)[C@@]4(C)CO)O[C@H](C(=O)O)[C@@H](O)[C@@H]3O)O[C@H](CO)[C@H](O)[C@@H]2O)[C@H](O)[C@H](O)[C@H]1O [soyasaponin I]
[1]; 10 mg/kg oral, tests 2 weeks after administration (Experimental Example 2)
  Y-maze number of total entries: not significantly different
[1]; Experimental Example 1, tests immediately after administration, group 1 (Soya-I)
  Y-maze spontaneous alterations (decreased memory of IBO group): improved
[1]; soyasaponin I 10 mg/kg oral, tests 2 weeks after administration (Experimental Example 2)
  Y-maze spontaneous alterations, increase compared with the non-soyasaponin I-administered group (IBO): 78.57%
[2]; 0.5, 1, 2 μM test groups, normalized to β-actin and vehicle
  Expression level of ChAT protein compared to the normal group: 1.9 fold
[2]; treatment for 6 days
  Expression of GAD65/67 protein: increased relatively little
  Expression of VGluT1 protein: increased relatively little
